This passage reports IC50, Cells and Stimulation results from ChEMBL document CHEMBL1134713, “Synthesis of a novel series of cytotoxic bisindole alkaloids” (Bioorg Med Chem Lett, 2001).

In experiment [1] the test system is L1210. The experiment is described as follows: Cytotoxicity against L1210 cell proliferation, measured using microculture tetrazolium assay (MTA). In kind it is functional, cell-based, Mus musculus.
In experiment [2] the test system is L1210. The experiment is described as follows: Evaluated for the dose-dependent accumulation and percent of cells in G1 phase was determined at a concentration of 20 uM. The class given is functional, Mus musculus.
Experiment [3] concerns L1210. Put plainly: Compound was evaluated for the percent stimulation of cell proliferation at a concentration of 10 uM. The class given is functional, Mus musculus.
Experiment [4] has as its system L1210. Put plainly: Evaluated for the dose-dependent accumulation and percent of cells in G1 phase was determined at a concentration of 5 uM. In kind it is functional, Mus musculus.
Experiment [5] deals with L1210. The experiment is described as follows: Evaluated for the dose-dependent accumulation and percent of cells in G1 phase was determined at a concentration of 25 uM. The class given is functional, Mus musculus.
The test system of experiment [6] is L1210. The experiment is described as follows: Evaluated for the dose-dependent accumulation and percent of cells in G1 phase was determined at a concentration of 50 uM. The class given is functional, Mus musculus.
For experiment [7], the system named is L1210. Put plainly: Evaluated for the dose-dependent accumulation and percent of cells in G1 phase was determined at a concentration of 10 uM. The class given is functional, Mus musculus.

As a reminder, the IC50 is the midpoint of a concentration-inhibition curve. The compound `CC[C@]12C=C(C(=O)OC)c3c(CC4Nc5ccc(OC)cc5C(OC)C4c4c5n(c6ccccc46)[C@H]4N(O)CCC[C@@]4(CC)C=C5C(=O)OC)c4ccccc4n3[C@H]1N(O)CCC2` (some centres not stated) showed an IC50 in the experiment with L1210 [1] (Mus musculus, L1210) of 1.7 µM. Moreover, in the experiment with L1210 [2], the Cells is given as 81%.

In turn, `CC[C@]12C=C(C(=O)OC)c3c(CC4Nc5ccc(O)cc5C(OC)C4c4c5n(c6ccccc46)[C@H]4N(O)CCC[C@@]4(CC)C=C5C(=O)OC)c4ccccc4n3[C@H]1N(O)CCC2` (some centres not stated) came in with an IC50 in the experiment with L1210 [1] (Mus musculus, L1210) of 0.9 µM. `CC[C@]12C=C(C(=O)OC)c3c(CC4Nc5cc(Cl)cc(Cl)c5C(Nc5cc(Cl)cc(Cl)c5)C4c4c5n(c6ccccc46)[C@H]4N(O)CCC[C@@]4(CC)C=C5C(=O)OC)c4ccccc4n3[C@H]1N(O)CCC2` (some centres not stated): the IC50 in the experiment with L1210 [1] (Mus musculus, L1210) was above 10 µM. For the same compound, the Stimulation with L1210 [3] is listed as 156%. The matching figures for `CC[C@]12C=C(C(=O)OC)c3c(CC4Nc5ccc(C(F)(F)F)cc5C(Nc5ccc(C(F)(F)F)cc5)C4c4c5n(c6ccccc46)[C@H]4N(O)CCC[C@@]4(CC)C=C5C(=O)OC)c4ccccc4n3[C@H]1N(O)CCC2` (some centres not stated): above 10 µM and 152%. Take `CC[C@]12C=C(C(=O)OC)c3c(CC4Nc5c(Cl)cccc5C(Nc5ccccc5Cl)C4c4c5n(c6ccccc46)[C@H]4N(O)CCC[C@@]4(CC)C=C5C(=O)OC)c4ccccc4n3[C@H]1N(O)CCC2` (some centres not stated): the IC50 in the experiment with L1210 [1] (Mus musculus, L1210) was above 10 µM. For `CC[C@]12C=C(C(=O)OC)c3c(CC4Nc5ccc(F)cc5CC4c4c5n(c6ccccc46)[C@H]4N(O)CCC[C@@]4(CC)C=C5C(=O)OC)c4ccccc4n3[C@H]1N(O)CCC2` (some centres not stated), in the experiment on L1210 [1] (Mus musculus, L1210), the IC50 turned out to be 1.8 µM. The Cells in the experiment on L1210 [4] is given as 81%. With `CCOC(=O)c1ccc(NC2c3cc(C(=O)OCC)ccc3NC(Cc3c4n(c5ccccc35)[C@H]3N(O)CCC[C@@]3(CC)C=C4C(=O)OC)C2c2c3n(c4ccccc24)[C@H]2N(O)CCC[C@@]2(CC)C=C3C(=O)OC)cc1` (some centres not stated), the IC50 in the experiment on L1210 [1] (Mus musculus, L1210) was above 10 µM. The same compound came in with a Stimulation in the experiment with L1210 [3] of 118%. In turn, `CC[C@]12C=C(C(=O)OC)c3c(CC4Nc5ccccc5CC4c4c5n(c6ccccc46)[C@H]4N(O)CCC[C@@]4(CC)C=C5C(=O)OC)c4ccccc4n3[C@H]1N(O)CCC2` (stereo in doubt; 1) came in with an IC50 with L1210 [1] (l1210) of 2.7 µM. In addition, the Cells in the experiment with L1210 [5] was found to be 80%.

Compound `CC[C@]12C=C(C(=O)OC)c3c(CC4Nc5cc(OC)c(OC)c(OC)c5CC4c4c5n(c6ccccc46)[C@H]4N(O)CCC[C@@]4(CC)C=C5C(=O)OC)c4ccccc4n3[C@H]1N(O)CCC2` (some centres not stated) yielded an IC50 in the experiment with L1210 [1] (Mus musculus, L1210) of 2.4 µM. The compound also registered a Cells in the experiment on L1210 [4] of 61%.

Compound `CC[C@]12C=C(C(=O)OC)c3c(CC4Nc5cc(Cl)cc(Cl)c5CC4c4c5n(c6ccccc46)[C@H]4N(O)CCC[C@@]4(CC)C=C5C(=O)OC)c4ccccc4n3[C@H]1N(O)CCC2` (some centres not stated) came in with an IC50 in the experiment with L1210 [1] (Mus musculus, L1210) above 10 µM.

As to `CC[C@]12C=C(C(=O)OC)c3c(CC4Nc5ccc(OC)cc5CC4c4c5n(c6ccccc46)[C@H]4N(O)CCC[C@@]4(CC)C=C5C(=O)OC)c4ccccc4n3[C@H]1N(O)CCC2` (some centres not stated), the half-maximal inhibitory concentration (IC50) in the experiment on L1210 [1] (Mus musculus, L1210) came out at 2.2 µM. Further, the Cells with L1210 [2] worked out at 69%. On to `CC[C@]12C=C(C(=O)OC)c3c(CCNc4ccc(F)cc4)c4ccccc4n3[C@H]1N(O)CCC2`, for which half-maximal inhibition with L1210 [1] (Mus musculus, L1210) (IC50) required 15.4 µM. In turn, `CC[C@]12C=C(C(=O)OC)c3c(CC4Nc5ccc(Cl)cc5C(Nc5ccc(Cl)cc5)C4c4c5n(c6ccccc46)[C@H]4N(O)CCC[C@@]4(CC)C=C5C(=O)OC)c4ccccc4n3[C@H]1N(O)CCC2` (some centres not stated) registered a half-maximal inhibitory concentration (IC50) in the experiment on L1210 [1] (Mus musculus, L1210) above 10 µM. The Stimulation in the experiment on L1210 [3] turned out to be 126%. As for `CC[C@]12C=C(C(=O)OC)c3c(CC4Nc5ccccc5CC4c4c5n(c6ccccc46)[C@H]4N(O)CCC[C@@]4(CC)C=C5C(=O)OC)c4ccccc4n3[C@H]1N(O)CCC2` (stereo in doubt; 6), in the experiment on L1210 [1] (l1210), the IC50 is 71 µM. Also, the Cells in the experiment with L1210 [6] came to 4.5%. In the case of `CC[C@]12C=C(C(=O)OC)c3c(CC4Nc5ccc(Cl)cc5CC4c4c5n(c6ccccc46)[C@H]4N(O)CCC[C@@]4(CC)C=C5C(=O)OC)c4ccccc4n3[C@H]1N(O)CCC2` (some centres not stated), in the experiment with L1210 [1] (Mus musculus, L1210), the 50% inhibitory concentration (IC50) was determined as 3.6 µM. Further, the Cells in the experiment on L1210 [7] was 77%. Take `CC[C@]12C=C(C(=O)OC)c3c(CC4Nc5c(F)cccc5C(Nc5ccccc5F)C4c4c5n(c6ccccc46)[C@H]4N(O)CCC[C@@]4(CC)C=C5C(=O)OC)c4ccccc4n3[C@H]1N(O)CCC2` (some centres not stated): in the experiment on L1210 [1] (Mus musculus, L1210), the midpoint of inhibition, the IC50, lay at 14.1 µM.
